This is an account of results in publication PMC10799042 (Scientific Reports, 2024).

Assay [1] has as its target T1, Acetylcholinesterase (AChE) (Mus musculus, UniProt P21836).
T1 sequence (P21836 32-614): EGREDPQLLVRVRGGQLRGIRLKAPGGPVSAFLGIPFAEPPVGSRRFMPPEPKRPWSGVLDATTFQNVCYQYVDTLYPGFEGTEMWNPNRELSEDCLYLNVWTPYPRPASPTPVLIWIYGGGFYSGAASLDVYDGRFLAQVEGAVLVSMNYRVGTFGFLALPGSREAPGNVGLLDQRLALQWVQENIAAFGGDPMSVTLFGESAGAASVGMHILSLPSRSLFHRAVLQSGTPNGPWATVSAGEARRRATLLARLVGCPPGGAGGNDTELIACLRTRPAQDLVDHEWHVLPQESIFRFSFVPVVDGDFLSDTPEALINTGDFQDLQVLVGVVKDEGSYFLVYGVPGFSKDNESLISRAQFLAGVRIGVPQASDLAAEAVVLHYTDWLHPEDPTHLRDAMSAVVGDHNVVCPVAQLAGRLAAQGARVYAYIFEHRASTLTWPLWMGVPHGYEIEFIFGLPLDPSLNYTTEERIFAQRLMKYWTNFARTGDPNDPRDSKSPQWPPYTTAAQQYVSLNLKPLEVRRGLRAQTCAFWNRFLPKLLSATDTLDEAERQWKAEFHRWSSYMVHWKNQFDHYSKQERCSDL
Particulars: brain THS of mice, scopolamine 1.5 mg/kg i.p.; donepezil and compounds 2 mg/kg p.o.; mean ± SD. The method, then: (§1) The animals were properly acclimated before being randomly placed into 12 groups (I-XII), with six animals in each group. […] Following the delivery of the dose to the mouse, the rodent's behaviour was assessed using the traditional Morris water maze (MWM) technique.
(§2) After five days of behavioral assessment, the mice's brains were removed and homogenized (blended) in chilled phosphate buffer (pH 7.4) at a concentration of 10% w/v (weight per volume). The homogenates were then centrifuged (spun at high speed) for 20 min at 4 °C to separate the supernatant (liquid) from the pellet (solid material). The supernatant was then collected to measure biological substances.
Employing Ellman et al., methodology, AChE levels were quantified in tissue homogenate supernatant (THS) to evaluate cholinergic abnormalities.

The subject of assay [2] is scopolamine-induced memory impairment and learning disability in mice. The experiment in a line: Morris water maze, scopolamine-induced memory impairment. It counts as in vivo, Swiss albino male mice. Particulars: for escape latency versus scopolamine-treated mice (in words): 2 mg/kg, day 1 to 5; for Escape latency, 1st Day: day 1; for Escape latency, 2nd Day: day 2; for Escape latency, 3rd Day: day 3; for Escape latency, 4th Day: day 4; for Escape latency, 5th Day: day 5. The method, then: Swiss albino male mice weighing 25–30 g were purchased from LLRUVAS in Hisar, Haryana, India. […] The housing, care, and handling of the animals were done per CPCSEA requirements. The animals were exposed to the laboratory setting for seven days before the experiment.
as §1
Five days of continuous animal evaluations were conducted using the MWM model. […] The tank was placed in a dim laboratory, and using wires anchored at the pool's edge at an angle to one another, it was divided into four equal pieces (P1–P4). A stage in the targeted area (P4) of the pool with an upper face (6 × 6 cm^2) immersed in the water (1.0 cm below the surface). The location of the stage stayed the same throughout the evaluation. The animals were subjected to water pools throughout the evaluation by turning their heads towards the wall from any of the four segments, namely P1-P4, and being given 90 s to recognise the stage placed in a pool. If the animal couldn't get to the stage in 90 s, they were gently guided onto the stage under supervision. On the sixth day, one of the parameters used to determine if cognitive impairments have recovered was the time it took the mice to travel from the initial portion to locate the hidden stage in the intended part (escape latency). […]

Assay [3] deals with Reduced glutathione (GSH). The experiment in a line: Reduced glutathione (GSH) assay in brain homogenate. Particulars: brain THS of mice, scopolamine 1.5 mg/kg i.p.; donepezil and compounds 2 mg/kg p.o.; mean ± SD. Format: in vivo. The protocol:
as §1, §2
The method described by Jollow et al. was used to measure glutathione (GSH) levels. First, 1.0 mL of 4% sulfosalicylic acid was added to 1.0 mL of tissue homogenate to precipitate the GSH. The mixture was then incubated at 4 °C for 1 h and centrifuged at 1200 rpm for 10 min at 4 °C. The supernatant was collected and diluted to a final volume of 3.0 mL with phosphate buffer and Ellman's reagent. […]

Another assay relates to Catalase. The experiment in a line: Catalase assay in brain homogenate. It counts as in vivo. Particulars: brain THS of mice, scopolamine 1.5 mg/kg i.p.; donepezil and compounds 2 mg/kg p.o.; mean ± SD. The method, then:
as §1, §2
Employing the methodology of Luck et al., catalase activity was quantified. The sample contained H2O2 (1.0 mL, 0.019 M), phosphate buffer (1.95 mL, 0.05 M, pH 7.0), and THS (0.05 mL). The optical density was computed at a wavelength of 240 nm. The findings were shown as μM H2O2 decomposition/min/mg protein[13].

Assay [4] concerns Superoxide dismutase (SOD). The experiment in a line: Superoxide dismutase (SOD) assay in brain homogenate. Particulars: brain THS of mice, scopolamine 1.5 mg/kg i.p.; donepezil and compounds 2 mg/kg p.o.; mean ± SD. Format: in vivo. The method, then:
as §1, §2
The samples contained EDTA, sodium carbonate, and NBT, and the assay was performed using Kono's method. Each sample tube contained 2.0 mL of this mixture, as well as THS and hydroxylamine. The absorbance of the mixture was measured at 560 nm every 30 or 60 s for 2 min to track changes in absorbance.

The test system of a further assay is nitrite. The experiment in a line: Nitrite assay (Greiss reagent) in brain homogenate. Format: in vivo. Particulars: brain THS of mice, scopolamine 1.5 mg/kg i.p.; donepezil and compounds 2 mg/kg p.o.; mean ± SD. The protocol:
as §1, §2
The amount of nitric oxide in THS was calculated using Greiss' reagent, a mixture of chemicals that reacts with nitric oxide to produce a colored product. The absorbance of the colored product was computed at 540 nm and the concentration of nitrite was determined using a standard curve of known nitrite concentrations.

The subject of the next assay is malondialdehyde (MDA). The experiment in a line: Lipid peroxidation (LPO) assay, MDA in brain homogenate. Format: in vivo. Particulars: brain THS of mice, scopolamine 1.5 mg/kg i.p.; donepezil and compounds 2 mg/kg p.o.; mean ± SD. The method, then:
as §1, §2
The amount of malondialdehyde (MDA), a marker of lipid peroxidation (LPO), was measured using a method described by Wills[10]. Tris–HCl buffer and THS were mixed and incubated at 37 °C for 2 h with 10% trichloroacetic acid. After incubation, the mixture was centrifuged again (at 1000 rpm for 10 min). […] After cooling, 1.0 mL of double-distilled water was added, and the absorbance was measured at 532 nm.

[5] abbreviates: mice, scopolamine 1.5 mg/kg i.p., donepezil and compounds 2 mg/kg p.o. with scopolamine, mean ± SD.

“2-(2-(1-benzylpiperidin-4-yl)ethyl)-4-chloro-6,7-dimethoxyquinoline [Compound 17]”: in assay [1], the “μM of AChE/min/mg protein” value was 0.02 ± 0.01 μM of AChE/min/mg protein. For the same compound, in assay [2], the “escape latency versus scopolamine-treated mice (in words)” value is given as “significantly reduced escape latency”. For the same compound, in assay [2] (setting [5]), the “Escape latency, 1st Day” value is recorded as 81 ± 0.89 s; the “Escape latency, 2nd Day” value stood at 32.83 ± 1.83 s; the “Escape latency, 3rd Day” value was determined as 22.66 ± 1.79 s; the “Escape latency, 4th Day” value was found to be 12.33 ± 2.25 s. Also, in assay [2] (setting [5]), the “Escape latency, 5th Day” value was found to be 4.16 ± 0.74 s. Besides, the “GSH assay, μmol of GSH/mg Protein” value in assay [3] was 0.11 ± 0.006 μmol of GSH/mg Protein. Further, in the assay with Catalase, the “Catalase assay, Catalase activity” value came out at 4.76 ± 0.02 min⁻¹. Further, the “SOD assay, SOD units/mg protein” value in assay [4] came to 3.09 ± 0.02 SOD units/mg protein. In addition, the “Nitrite assay, nitrite conc.” value with nitrite worked out at 12.57 ± 0.05 μM/mg protein. Moreover, the “LPO assay, MDA levels” value in the assay on malondialdehyde (MDA) is reported as 8.73 ± 0.05 nM/mg of tissue.
In the case of “2-(1-benzylpiperidin-4-yl)-4-chloro-6,7-dimethoxyquinoline [Compound 15]”, the “μM of AChE/min/mg protein” value in assay [1] was 0.02 ± 0.02 μM of AChE/min/mg protein. In addition, the “escape latency versus scopolamine-treated mice (in words)” value in assay [2] is reported as “significantly reduced escape latency”. Further, in assay [2] (setting [5]), the “Escape latency, 1st Day” value came to 80.5 ± 0.86 s; the “Escape latency, 2nd Day” value worked out at 49.83 ± 0.75 s; the “Escape latency, 3rd Day” value stood at 29.16 ± 3.07 s; the “Escape latency, 4th Day” value was found to be 11.5 ± 1.04 s. Besides, in assay [2] (setting [5]), the “Escape latency, 5th Day” value stood at 3.83 ± 1.34 s. In addition, the “GSH assay, μmol of GSH/mg Protein” value in assay [3] was 0.09 ± 0.003 μmol of GSH/mg Protein. Also, in the assay with Catalase, the “Catalase assay, Catalase activity” value came to 5.35 ± 0.03 min⁻¹. For the same compound, the “SOD assay, SOD units/mg protein” value in assay [4] turned out to be 3.14 ± 0.03 SOD units/mg protein. For the same compound, the “Nitrite assay, nitrite conc.” value in the assay on nitrite worked out at 14.66 ± 0.04 μM/mg protein. Besides, the “LPO assay, MDA levels” value in the assay on malondialdehyde (MDA) is recorded as 8.54 ± 0.02 nM/mg of tissue.
For “2-(1-benzylpiperidin-4-yl)-6,7-dimethoxy-4-(4-(trifluoromethyl)phenyl)quinoline [Compound 19]”, the “μM of AChE/min/mg protein” value in assay [1] was 0.01 ± 0.02 μM of AChE/min/mg protein. Moreover, the “escape latency versus scopolamine-treated mice (in words)” value in assay [2] was “significantly reduced escape latency”. Further, in assay [2] (setting [5]), the “Escape latency, 1st Day” value was 54.83 ± 1.47 s; the “Escape latency, 2nd Day” value was 44.83 ± 2.71 s; the “Escape latency, 3rd Day” value came out at 21.33 ± 2.68 s; the “Escape latency, 4th Day” value amounted to 13.16 ± 2.31 s. Moreover, the “Escape latency, 5th Day” value in assay [2] (setting [5]) is 3.66 ± 0.94 s. Further, the “GSH assay, μmol of GSH/mg Protein” value in assay [3] was 0.09 ± 0.005 μmol of GSH/mg Protein. The “Catalase assay, Catalase activity” value with Catalase was 5.17 ± 0.05 min⁻¹. Moreover, the “SOD assay, SOD units/mg protein” value in assay [4] worked out at 3.09 ± 0.03 SOD units/mg protein. Further, the “Nitrite assay, nitrite conc.” value in the assay on nitrite came out at 11.31 ± 0.03 μM/mg protein. Besides, in the assay on malondialdehyde (MDA), the “LPO assay, MDA levels” value was 9.25 ± 0.02 nM/mg of tissue.
Take `CN1[C@@H]2C[C@@H](OC(=O)[C@H](CO)c3ccccc3)C[C@H]1[C@@H]1O[C@@H]12` [Scopolamine, scopolamine, reference compound]: in assay [2] (setting [5]), the “Escape latency, 1st Day” value stood at 78.65 ± 0.82 s; the “Escape latency, 2nd Day” value was found to be 80.64 ± 3.91 s; the “Escape latency, 3rd Day” value came out at 82.82 ± 3.79 s; the “Escape latency, 4th Day” value was 84.15 ± 3.31 s. In addition, in assay [2] (setting [5]), the “Escape latency, 5th Day” value is 86.25 ± 3.31 s. Besides, the “TSTQ (time spent in the target quadrant)” value in assay [2] (mice, scopolamine 1.5 mg/kg i.p., donepezil and compounds 2 mg/kg p.o. with scopolamine, probe trial, mean ± SD) worked out at 18.55 ± 0.88 s.
On to “N-(1-benzylpiperidin-4-yl)-2-(2-oxoindolin-3-yl)acetamide [Compound 23]”, for which the “μM of AChE/min/mg protein” value in assay [1] was 0.01 ± 0.04 μM of AChE/min/mg protein. In assay [2], the “escape latency versus scopolamine-treated mice (in words)” value was “significantly reduced escape latency”. In addition, in assay [2] (setting [5]), the “Escape latency, 1st Day” value was 55.33 ± 1.96 s; the “Escape latency, 2nd Day” value is reported as 45.16 ± 0.75 s; the “Escape latency, 3rd Day” value came to 35.33 ± 2.56 s; the “Escape latency, 4th Day” value is 11.83 ± 1.94 s. Besides, the “Escape latency, 5th Day” value in assay [2] (setting [5]) is given as 4.16 ± 1.067 s.
